The assay has as its system SNU449-TM4SF5 cells. Description: Western blotting of NK cell stimulatory ligands. The class given is cell-based, human. The settings on record: SNU449-TM4SF5, given concentration, 24 hours (FIG. 13c). On the procedure: Cell extracts were obtained from cells grown to a density of 70-80% without any treatment, or from cells treated with vehicle DMSO or drugs at the given concentrations for 24 hours. For the extract of hepatocytes or liver cancer cells, a lysis buffer (150 mM NaCl, 1% NP-40, 50 mM Tris-HCl, 0.25% sodium deoxycholate, pH 7.4) including a protease inhibitor cocktail (GenDEPOT) was used. In addition, after washing animal liver tissue twice with PBS, SDS, Na3VO4, and protease inhibitor cocktails (GenDEPOT) were added to a lysis buffer [50 mM Tris-HCl, pH 7.4, 1% NP40, 0.25% sodium deoxycholate, 150 mM NaCl, 1 mM EDTA (based on 500 ml)], followed by treatment at 4°C for 15 minutes. […] After quantification using BCA reagent (Thermo Scientific), a 4 × sample buffer [100% glycerol 4 ml, Tris-HCl, pH 6.8, 2.4 ml, SDS 0.8 g, Bromophenol blue 4 mg, betamercaptoethanol 0.4 ml, H2O 3.1 ml (based on 10 ml)] was added, followed by boiling at 100°C for 5 minutes. […]
After 24 hours, vehicle DMSO, drug ST-1-025, or ST-5-002 was treated at the given concentrations. […] (f) After treating NK92-EV or NK92-TM4SF5 cells with DMSO or drugs ST-2-001 (1 nM), ST-3-005 (10 nM or 1 µM), ST-5-001, or ST-5-002 (100 nM or 1 µM) for 24 hours, the expression of SLAMF7 expressed on the cell surface was analyzed through immunostaining using flow cytometry. […]

In the case of `COc1ccc(-c2cc(-c3ccc(N)cc3)no2)cc1` [ST-1-025, 4-(5-(4-methoxyphenyl)isoxazole-3-yl)aniline], the “expression of the stimulatory ligands (MICA/B, SLAMF6, and SLAMF7)” value is “increased again”.

Values taken from patent publication EP4772500A1, “NOVEL ISOXAZOLE COMPOUND AS TM4SF5-SPECIFIC INHIBITOR AND USE THEREOF” (Seoul National University R&DB Foundation, priority 2023, dated 2025).
